Where no end group is shown, it is not given here.
How the values were obtained:
Drp1/ATAD3A = target: T1, Drp1/ATAD3A (Mus musculus, UniProt Q925I1); test: Immunoprecipitation of Drp1/ATAD3A binding in mouse striatal cells; assay type: cell-based
T1 construct: The total lysates of cells or mouse striatum were subject to IP analysis; endogenous in cells; host or cells: HdhQ7 / HdhQ111 mouse striatal cells; wild-type mouse striatal cells exposed to 3-NP
T1 sequence (Q925I1 2-591 limits assumed): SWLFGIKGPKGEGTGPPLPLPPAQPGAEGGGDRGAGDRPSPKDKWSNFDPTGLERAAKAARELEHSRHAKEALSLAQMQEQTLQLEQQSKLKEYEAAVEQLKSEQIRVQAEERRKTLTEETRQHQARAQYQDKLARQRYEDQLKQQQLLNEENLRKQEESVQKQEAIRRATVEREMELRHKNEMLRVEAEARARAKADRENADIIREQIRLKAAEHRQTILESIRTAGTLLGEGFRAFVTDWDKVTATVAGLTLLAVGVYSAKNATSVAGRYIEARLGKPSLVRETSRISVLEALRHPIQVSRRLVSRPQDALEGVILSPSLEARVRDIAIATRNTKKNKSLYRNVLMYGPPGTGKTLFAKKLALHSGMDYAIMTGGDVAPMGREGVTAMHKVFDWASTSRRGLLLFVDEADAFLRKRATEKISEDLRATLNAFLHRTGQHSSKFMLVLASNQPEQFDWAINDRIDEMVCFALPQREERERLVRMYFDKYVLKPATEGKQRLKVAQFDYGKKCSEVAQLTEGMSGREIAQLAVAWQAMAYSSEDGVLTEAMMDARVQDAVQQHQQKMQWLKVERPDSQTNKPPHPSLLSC
Experimental: Cells and mouse brain tissues were harvested and lysed in total lysis buffer ([…], pH 7.9, […], […], 1% Triton X-100, and protease inhibitor cocktail) for 30 mins on ice and centrifuged at 12,000×g for 10 min at 4° C. The supernatants were incubated with the indicated primary antibodies or control IgG (sc-2025 and sc-2027, Santa Cruz Biotechnology) overnight at 4° C., followed by incubation with protein A/G beads (sc-2003, Santa Cruz Biotechnology) for 2 h at 4° C. The immunoprecipitates were washed with lysis buffer three times for a total of 30 min and then subject to WB analysis.

ATAD3A = target: T2, ATAD3A (Mus musculus, UniProt Q925I1); test: ATAD3A dimerization by western blot, Neuro2A cells; assay type: cell-based; conditions: Neuro2a cells exposed to 3-NP, non-reducing conditions
T2 construct: endogenous in cells; host or cells: Neuro2A cells
T2 sequence (Q925I1 1-591): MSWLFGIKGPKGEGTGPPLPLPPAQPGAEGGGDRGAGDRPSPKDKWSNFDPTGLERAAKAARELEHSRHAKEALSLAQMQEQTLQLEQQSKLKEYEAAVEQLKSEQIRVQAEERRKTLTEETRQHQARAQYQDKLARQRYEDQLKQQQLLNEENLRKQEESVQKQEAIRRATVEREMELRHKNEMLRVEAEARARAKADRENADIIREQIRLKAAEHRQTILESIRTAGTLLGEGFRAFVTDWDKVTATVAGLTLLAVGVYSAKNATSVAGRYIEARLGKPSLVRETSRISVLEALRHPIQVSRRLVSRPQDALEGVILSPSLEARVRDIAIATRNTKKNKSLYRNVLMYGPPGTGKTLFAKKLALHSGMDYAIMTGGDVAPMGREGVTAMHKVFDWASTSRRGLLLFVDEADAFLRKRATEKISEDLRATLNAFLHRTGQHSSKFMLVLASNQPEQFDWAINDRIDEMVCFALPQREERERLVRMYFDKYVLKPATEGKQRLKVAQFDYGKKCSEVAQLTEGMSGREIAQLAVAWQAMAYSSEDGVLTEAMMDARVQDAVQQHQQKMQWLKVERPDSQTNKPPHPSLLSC
Experimental: To analyze dimerization of ATAD3A under non-reducing conditions, the cells or tissues were harvested and lysed with total lysates buffer. An equal amount of proteins was subject to 8% SDS-PAGE analysis in the presence or absence of β-mercaptoethanol (β-ME). For in vitro BMH crosslinking, the cell lysates were incubated with 1 mM BMH at r.t. for up to 25 min and quenched with 0.1% β-ME, followed by SDS-PAGE analysis. For in-vivo crosslinking, the cells were treated with cell-permeable crosslinker BMH (1 mM) for 20 min at 37° C. After crosslinking, the cells were quenched in PBS with 0.1% β-ME. For DSP crosslinking, the cells were treated with cell-permeable crosslinker for 5 min at 37° C., followed by quenching and washing with 10 mM Glycine in PBS. For formaldehyde (FA) crosslinking, the cells were incubated with PBS buffer containing 1% FA for 20 min at r.t., and the crosslinking reaction was terminated by washing in PBS containing 100 mM glycine. The cells were then lysed and subject to 8% SDS-PAGE analysis. For DTSSP crosslinking of proteins in mitochondrial fractions, isolated mitochondria samples were suspended in the mitochondrial lysis buffer (250 mM sucrose, 20 mM HEPES-NaOH, pH 7.5, 10 mM KCl, 1.5 mM MgCl2, 1 mM EDTA, 1 mM EGTA and protease inhibitor). An equal amount of crude mitochondria was incubated at 30° C. in the presence of 0.5 mM DTSSP. […]

Molecule	interaction between Drp1 and ATAD3A (Drp1/ATAD3A; wildtype mouse striatal cells, 3-NP 5 mM for 4 h)	ATAD3A dimerization (ATAD3A)	binding of Drp1/ATAD3A (Drp1/ATAD3A; HdhQ111 cells, peptide 1 μM/day for 4 days, vs TAT)
O=C(O)CC[N+](=O)[O-] [3-NP, 3-nitropropionic acid, reference compound]	induced	increased	
YGRKKRRQRRR-GG-EERRKT-NH2 (YGRKKRRQRRRGGEERRKT-NH2) [DA2, peptide from ATAD3A coiled-coil region homologous to Drp1, conjugated to TAT47-57]			a trend toward inhibition

Reference: US12403184B2, “Compositions and methods for treating neurodegenerative disroders” (priority 2018, dated 2025)
